Measurements taken from patent publication US20250019385A1, “SPIROCYCLIC ANNULATED 2-AMINO-3-CYANO THIOPHENES AND DERIVATIVES FOR THE TREATMENT OF CANCER” (Boehringer Ingelheim International GmbH, priority 2023, published 2025).

system: Ba/F3 cells KRAS G12V; assay: Ba/F3 proliferation assay (KRAS G12V); assay type: cell-based; settings: 72 h, AlamarBlue viability
Description: (§1) Ba/F3 cells are ordered from DSMZ (ACC300, Lot17) and grown in RPMI-1640 (ATCC 30-2001)+10% FCS+10 ng/mL IL-3 at 37° C. in 5% […] atmosphere. Plasmids containing KRASG12 mutants (i.e. […], G12C, G12V) are obtained from GeneScript. To generate KRASG12-dependent Ba/F3 models, Ba/F3 cells are transduced with retroviruses containing vectors that harbor KRASG12 isoforms. Platinum-E cells (Cell Biolabs) are used for retrovirus packaging. Retrovirus is added to Ba/F3 cells. To ensure infection, 4 μg/mL polybrene is added and cells are spinfected. Infection efficiency is confirmed by measuring GFP-positive cells using a cell analyzer. Cells with an infection efficiency of 10% to 20% are further cultivated and puromycin selection with 1 μg/mL is initiated. As a control, parental Ba/F3 cells are used to show selection status. Selection is considered successful when parental Ba/F3 cells cultures died. To evaluate the transforming potential of KRASG12 mutations, the growth medium is no longer supplemented with IL-3. Ba/F3 cells harboring the empty vector are used as a control. Approximately ten days before conducting the experiments, puromycin is left out.
(§2) For proliferation assays, Ba/F3 cells are seeded into 384-well plates at 1.5×1 (M cells/60 μL in growth media (RPMI-1640+10% FCS). Compounds (10 mM stock in DMSO) are added at logarithmic dose series using the ECHO acoustic liquid handler system (Beckman Coulter), normalizing for added DMSO and including DMSO controls. All compound treatments are performed in technical duplicates. For the TO time point measurement, untreated cells are analyzed at the time of compound addition. Treated cells are incubated for 72 h at 37° C. with 5% CO2 and cell viability is measured in the PerkinElmer Envision Multimode Reader using AlamarBlue™ (ThermoFisher) viability stain. Viability (stated as percent of control) is defined as relative fluorescence units RFU of each well divided by the RFU of cells in DMSO controls. IC50 values are determined from viability measurements by non-linear regression using a four-parameter model.

| Structure (SMILES) | IC50 |
| --- | --- |
| C[C@H](Oc1nc(-c2noc3c2CCC[C@@]32CCCc3sc(N)c(C#N)c32)nc2c1CC[C@]21CNCCO1)[C@@H]1C[C@@H](F)CN1C [II-20] | 96 nM |

same assay, conditions: Mus musculus, BaF3, 72 h, AlamarBlue viability

| Structure (SMILES) | IC50 |
| --- | --- |
| C[C@H](Oc1nc(-c2noc3c2CCC[C@@]32CCCc3sc(N)c(C#N)c32)nc2c1CNC[C@]21CCOC1)[C@@H]1CCCN1C [II-15] | 2 nM |
| C[C@@H]1COC[C@H](n2c(=O)n(C)c3c(O[C@@H](C)[C@@H]4CCCN4C)nc(-c4onc5c4CCC[C@@]54CCCc5sc(N)c(C#N)c54)nc32)C1 [I-44] | 2 nM |
| C[C@H](Oc1nc(-c2onc3c2CCC[C@@]32CCCc3sc(N)c(C#N)c32)nc2c1n(C)c(=O)n2[C@@H]1CCOC1)C12CCCN1CCC2 [I-25] | 7 nM |
| CO[C@H]1CCN(C)[C@@H]1[C@H](C)Oc1nc(-c2onc3c2CCC[C@@]32CCCc3sc(N)c(C#N)c32)nc2c1n(C)c(=O)n2[C@@H]1CCOC1 [I-23] | 2 nM |
| Cc1cc2c(O[C@@H](C)[C@@H]3CCCN3C)nc(-c3onc4c3CCC[C@@]43CCCc4sc(N)c(C#N)c43)nc2n1[C@@H]1CCOC1 [I-40] | 14 nM |

system: Ba/F3 cells KRAS G12C; assay: Ba/F3 proliferation assay (KRAS G12C); assay type: cell-based; settings: 72 h, AlamarBlue viability
Description: as §1, §2

| Structure (SMILES) | IC50 |
| --- | --- |
| C[C@H](Oc1nc(-c2noc3c2CCC[C@@]32CCCc3sc(N)c(C#N)c32)nc2c1CC[C@]21CNCCO1)[C@@H]1C[C@@H](F)CN1C [II-20] | 181 nM |

same assay, conditions: Mus musculus, BaF3, 72 h, AlamarBlue viability

| Structure (SMILES) | IC50 |
| --- | --- |
| C[C@H](Oc1nc(-c2noc3c2CCC[C@@]32CCCc3sc(N)c(C#N)c32)nc2c1CNC[C@]21CCOC1)[C@@H]1CCCN1C [II-15] | 1 nM |
| C[C@@H]1COC[C@H](n2c(=O)n(C)c3c(O[C@@H](C)[C@@H]4CCCN4C)nc(-c4onc5c4CCC[C@@]54CCCc5sc(N)c(C#N)c54)nc32)C1 [I-44] | 3 nM |
| C[C@H](Oc1nc(-c2onc3c2CCC[C@@]32CCCc3sc(N)c(C#N)c32)nc2c1n(C)c(=O)n2[C@@H]1CCOC1)C12CCCN1CCC2 [I-25] | 12 nM |
| CO[C@H]1CCN(C)[C@@H]1[C@H](C)Oc1nc(-c2onc3c2CCC[C@@]32CCCc3sc(N)c(C#N)c32)nc2c1n(C)c(=O)n2[C@@H]1CCOC1 [I-23] | 4 nM |
| Cc1cc2c(O[C@@H](C)[C@@H]3CCCN3C)nc(-c3onc4c3CCC[C@@]43CCCc4sc(N)c(C#N)c43)nc2n1[C@@H]1CCOC1 [I-40] | 23 nM |

system: LOVO cells; assay: LOVO CTG proliferation assay (120 h) (CRC, G13D); assay type: cell-based; settings: not given
Description: LOVO cells (ATCC No. CCL-229) are dispensed into black 384-well plates, flat and clear bottom (Greiner, PNr. 781091) at a density of 1000 cells per well in 60 μl DMEM (Sigma D6429)+10% FCS (fetal calf serum, HyClone, SH30084.03). Cells are incubated overnight at 37° C. in a humidified tissue culture incubator at 5% CO2. Compounds (10 mM stock in DMSO) are added at logarithmic dose series using the ECHO acoustic liquid handler system (Beckman Coulter), normalizing for added DMSO and including DMSO controls. All compound treatments are performed in technical duplicates. For the TO time point measurement, untreated cells are analyzed at the time of compound addition. Plates are incubated for 120 h, and cell viability is measured using CellTiter-Glo luminescent cell viability reagent (Promega product code G7570). Viability (stated as percent of control) is defined as relative luminescence units RLU of each well divided by the RLU of cells in DMSO controls. IC50 values are determined from viability measurements by non-linear regression using a four-parameter model.
IC50 values of representative compounds according to the invention measured with these assays in the indicated cell lines are presented in Table 46.

| Structure (SMILES) | IC50 |
| --- | --- |
| C[C@H](Oc1nc(-c2noc3c2CCC[C@@]32CCCc3sc(N)c(C#N)c32)nc2c1CC[C@]21CNCCO1)[C@@H]1C[C@@H](F)CN1C [II-20] | 253 nM |

same assay, conditions: Homo sapiens

| Structure (SMILES) | IC50 |
| --- | --- |
| C[C@H](Oc1nc(-c2noc3c2CCC[C@@]32CCCc3sc(N)c(C#N)c32)nc2c1CNC[C@]21CCOC1)[C@@H]1CCCN1C [II-15] | 17 nM |
| C[C@@H]1COC[C@H](n2c(=O)n(C)c3c(O[C@@H](C)[C@@H]4CCCN4C)nc(-c4onc5c4CCC[C@@]54CCCc5sc(N)c(C#N)c54)nc32)C1 [I-44] | 12 nM |
| C[C@H](Oc1nc(-c2onc3c2CCC[C@@]32CCCc3sc(N)c(C#N)c32)nc2c1n(C)c(=O)n2[C@@H]1CCOC1)C12CCCN1CCC2 [I-25] | 55 nM |
| CO[C@H]1CCN(C)[C@@H]1[C@H](C)Oc1nc(-c2onc3c2CCC[C@@]32CCCc3sc(N)c(C#N)c32)nc2c1n(C)c(=O)n2[C@@H]1CCOC1 [I-23] | 10 nM |
| Cc1cc2c(O[C@@H](C)[C@@H]3CCCN3C)nc(-c3onc4c3CCC[C@@]43CCCc4sc(N)c(C#N)c43)nc2n1[C@@H]1CCOC1 [I-40] | 43 nM |

system: not listed separately; assay: Plasma protein binding assay (PPB), equilibrium dialysis; assay type: in vitro ADME; settings: 10% FCS in PBS, fraction unbound
Description: Binding of test compounds to plasma was determined using equilibrium dialysis (ED) and quantitative mass spectrometry interfaced with liquid chromatography (LC-MS). In brief, ED was performed with dialysis devices consisting of two chambers separated by a semipermeable membrane with a molecular weight cut-off of 5-10 kg/mol. One chamber was filled with 10% FCS in PBS containing 1-10 μmol/L test compound and the other chamber was filled with phosphate-buffer saline (PBS) with or without dextran. The dialysis chamber was incubated for 3-5 hours at 37° C. After incubation, protein was precipitated from aliquots of each chamber and the concentration of test compound in the supernatant of the plasma-containing compartment (cserum) and of the buffer-containing compartment (cbuffer) was determined by LC-MS. The fraction of unbound test compound (not bound to plasma) (f) was calculated according to the following equation: […]

| Structure (SMILES) | PPB 10% FCS (% fu) |
| --- | --- |
| C[C@H](Oc1nc(-c2noc3c2CCC[C@@]32CCCc3sc(N)c(C#N)c32)nc2c1CC[C@]21CNCCO1)[C@@H]1C[C@@H](F)CN1C [II-20] | 10 % fu |

same assay, conditions: bovine, 10% FCS in PBS, read-out: PPB 10% FCS (% fu)

| Structure (SMILES) | fraction unbound |
| --- | --- |
| C[C@H](Oc1nc(-c2noc3c2CCC[C@@]32CCCc3sc(N)c(C#N)c32)nc2c1CNC[C@]21CCOC1)[C@@H]1CCCN1C [II-15] | 0.3 |
| C[C@@H]1COC[C@H](n2c(=O)n(C)c3c(O[C@@H](C)[C@@H]4CCCN4C)nc(-c4onc5c4CCC[C@@]54CCCc5sc(N)c(C#N)c54)nc32)C1 [I-44] | 0.1 |
| C[C@H](Oc1nc(-c2onc3c2CCC[C@@]32CCCc3sc(N)c(C#N)c32)nc2c1n(C)c(=O)n2[C@@H]1CCOC1)C12CCCN1CCC2 [I-25] | 0.26 |
| CO[C@H]1CCN(C)[C@@H]1[C@H](C)Oc1nc(-c2onc3c2CCC[C@@]32CCCc3sc(N)c(C#N)c32)nc2c1n(C)c(=O)n2[C@@H]1CCOC1 [I-23] | 0.22 |
| Cc1cc2c(O[C@@H](C)[C@@H]3CCCN3C)nc(-c3onc4c3CCC[C@@]43CCCc4sc(N)c(C#N)c43)nc2n1[C@@H]1CCOC1 [I-40] | 0.09 |
